Results taken from PMC6321071, “Chenodeoxycholic Acid from Bile Inhibits Influenza A Virus Replication via Blocking Nuclear Export of Viral Ribonucleoprotein Complexes” (Molecules, 2018).
Structures can show the parent of a compound that is named as a salt. Where two headings read alike, the source gives them in different places.

Columns and labels:
[1] = test system: influenza A virus (H5N1, H9N2, H1N1); assay: microbe, parasite or virus in culture; assay type: cell-based; settings: for IC50: Influenza A virus, read-out: IC50 range over three IAV subtypes
[2] = test system: H5N1 virus; assay type: cell-based, Influenza A virus A/Duck/Guangdong/99 (H5N1)
[3] = test system: H5N1; assay type: cell-based, Influenza A virus A/Duck/Guangdong/99 (H5N1)
[4] = test system: nuclear export of viral RNP complexes (H5N1); assay type: cell-based, Influenza A virus A/Duck/Guangdong/99 (H5N1)
[5] = test system: H5N1; assay: microbe, parasite or virus in culture; assay type: cell-based, Influenza A virus A/Duck/Guangdong/99 (H5N1); settings: Influenza A virus, H5N1, A549, read-out: IC50 (H5N1)
[6] = test system: H9N2; assay: microbe, parasite or virus in culture; assay type: cell-based, Influenza A virus A/Chicken/Guangdong/96 (H9N2); settings: Influenza A virus, H9N2, A549, read-out: IC50 (H9N2)
[7] = test system: PR8 (H1N1); assay: microbe, parasite or virus in culture; assay type: cell-based, Influenza A virus A/Puerto Rico/8/34 (PR8); settings: Influenza A virus, A549, read-out: IC50 (PR8 (H1N1))
[8] = test system: H5N1; assay: microbe, parasite or virus in culture; assay type: cell-based, Influenza A virus A/Duck/Guangdong/99 (H5N1); settings: Influenza A virus, H5N1, MDCK, read-out: IC50 (H5N1)
[9] = test system: H9N2; assay: microbe, parasite or virus in culture; assay type: cell-based, Influenza A virus A/Chicken/Guangdong/96 (H9N2); settings: Influenza A virus, H9N2, MDCK, read-out: IC50 (H9N2)
[10] = test system: PR8 (H1N1); assay: microbe, parasite or virus in culture; assay type: cell-based, Influenza A virus A/Puerto Rico/8/34 (PR8); settings: Influenza A virus, MDCK, read-out: IC50 (PR8 (H1N1))
[11] = test system: PR8 (H1N1); assay type: cell-based, Influenza A virus A/Puerto Rico/8/34 (PR8)
[12] = test system: H9N2 virus; assay type: cell-based, Influenza A virus A/Chicken/Guangdong/96 (H9N2)
[13] = test system: H5N1; assay type: cell-based, Influenza A virus A/Duck/Guangdong/99 (H5N1); settings: 60 μM
[14] = MTT cytotoxicity assay on A549 cells; settings: human
[15] = test system: A549 cells; assay: MTT cytotoxicity assay on A549 cells; settings: 48 or 72 h treatment, MTT
[16] = MTT cytotoxicity assay on MDCK cells; settings: dog
[17] = test system: MDCK cells; assay: MTT cytotoxicity assay on MDCK cells; settings: 48 or 72 h treatment, MTT

**Q.** With `NC(=O)c1ncn([C@@H]2O[C@H](CO)[C@@H](O)[C@H]2O)n1` [ribavirin, Ribavirin hydrochloride] as the molecule, how does the “reduction of progeny virus production relative to 60 μM CDCA” value ([1]; 90 μM) read?
**A.** Its value is “slightly more potent”.

**Q.** And the “inhibition of H5N1 infection (CPE, NP expression)” value ([2]; 90 μM)?
**A.** Its value is “significant inhibition”.

**Q.** What about the “IAV inhibition (NP expression), added 6–8 hpi” value [3] of the same molecule?
**A.** Its value is “no inhibition”.

**Q.** What about the “IAV inhibition (NP expression), added before 6 hpi” value [3] of the same molecule?
**A.** The value was “much better IAV inhibition”.

**Q.** What about the “nuclear export of vRNP complexes” value [4] of the same molecule?
**A.** The value was “did not block”.

**Q.** With `C[C@H](CCC(=O)O)[C@H]1CC[C@H]2[C@@H]3[C@H](O)C[C@@H]4C[C@H](O)CC[C@]4(C)[C@H]3CC[C@]12C` [CDCA, Chenodeoxycholic acid] as the molecule, how does the IC50 [5] read?
**A.** The IC50 was 8.2 ± 1.2 µM.

**Q.** What about the IC50 [6] of the same molecule?
**A.** The IC50 was 11.5 ± 1.7 µM.

**Q.** What about the IC50 [7] of the same molecule?
**A.** Its IC50 is 7.7 ± 0.7 µM.

**Q.** What about the IC50 [8] of the same molecule?
**A.** The IC50 was 6.5 ± 0.5 µM.

**Q.** What about the IC50 [9] of the same molecule?
**A.** The IC50 was 5.5 ± 0.7 µM.

**Q.** What about the IC50 [10] of the same molecule?
**A.** Its IC50 is 7.2 ± 0.7 µM.

**Q.** What about the progeny virus titers [1] of the same molecule?
**A.** Its progeny virus titers is “significantly inhibited”.

**Q.** What about the IC50 [1] of the same molecule?
**A.** Its IC50 is 5.5 to 11.5 µM.

**Q.** What about the “H5N1 replication (CPE, NP expression)” value [2] of the same molecule?
**A.** The value was “significantly inhibited”.

**Q.** What about the “anti-IAV activity, CPE (PR8 (H1N1))” value [11] of the same molecule?
**A.** Its value is “reduced CPE”.

**Q.** And the “anti-IAV activity, CPE (H9N2)” value [12]?
**A.** The value was “reduced CPE”.

**Q.** And the “decrease of progeny virus yield, post-treatment” value [13]?
**A.** The value was “more than 90%”.

**Q.** What about the “progeny virus yield and viral NP production, pretreatment” value [13] of the same molecule?
**A.** The value was “did not reduce”.

**Q.** What about the “virus replication, cotreatment” value [13] of the same molecule?
**A.** Its value is “did not affect”.

**Q.** What about the “inhibition of virus replication (NP expression), added 4–6 and 6–8 hpi” value ([3]; 60 μM) of the same molecule?
**A.** The value was “more significant inhibition”.

**Q.** And the “early NP localization events (cytosol to nucleus translocation)” value [4]?
**A.** The value was “did not affect”.

**Q.** What about the “nuclear export of vRNP complexes” value [4] of the same molecule?
**A.** The value was “inhibited”.

**Q.** What about the CC50 [14] of the same molecule?
**A.** Its CC50 is 372 ± 41.2 µM.

**Q.** What about the “concentrations with no obvious cytotoxicity” value [15] of the same molecule?
**A.** The value was no more than 125 µM.

**Q.** And the CC50 [16]?
**A.** Its CC50 is 121 ± 9.7 µM.

**Q.** And the “concentrations with no obvious cytotoxicity” value [17]?
**A.** Its value is no more than 62.5 µM.

**Q.** Which IC50 [5] does the source give for `C[C@H](CCC(=O)O)[C@H]1CC[C@H]2[C@@H]3C[C@H](O)[C@@H]4C[C@H](O)CC[C@]4(C)[C@H]3CC[C@]12C` [HDCA, hyodeoxycholic acid] here?
**A.** The IC50 was 60 ± 5.5 µM.

**Q.** And the IC50 [6]?
**A.** The IC50 was 53 ± 6.5 µM.

**Q.** What about the IC50 [7] of the same molecule?
**A.** The IC50 was 73.7 ± 6.7 µM.

**Q.** And the IC50 [8]?
**A.** The IC50 was 41.2 ± 3.5 µM.

**Q.** What about the IC50 [9] of the same molecule?
**A.** Its IC50 is 31 ± 2.2 µM.

**Q.** And the IC50 [10]?
**A.** The IC50 was 43.5 ± 2.7 µM.

**Q.** What about the IC50 [1] of the same molecule?
**A.** Its IC50 is 31 to 73.7 µM.

**Q.** And the CC50 [14]?
**A.** Its CC50 is 486 ± 55 µM.

**Q.** And the CC50 [16]?
**A.** Its CC50 is 414 ± 33.7 µM.

**Q.** Which results are given for `C[C@H](CCC(=O)O)[C@H]1CC[C@H]2[C@@H]3[C@@H](O)C[C@@H]4C[C@H](O)CC[C@]4(C)[C@H]3CC[C@]12C` [UDCA, ursodeoxycholic acid]?
**A.** IC50 [5]: 34.2 ± 3.7 µM; IC50 [6]: 58.7 ± 4.5 µM; IC50 [7]: 43 ± 4.5 µM; IC50 [8]: 47.2 ± 3.2 µM; IC50 [9]: 36.7 ± 3.5 µM; IC50 [10]: 56.2 ± 5 µM; IC50 [1]: 31 to 73.7 µM; CC50 [14]: 815 ± 49.2 µM; CC50 [16]: 596 ± 53 µM

**Q.** With `CCC(=C/[C@H](C)C/C=C/C(C)=C/[C@@H](C)C(=O)[C@@H](C)[C@H](O)[C@@H](C)C/C(C)=C/C(=O)O)/C=C/[C@@H]1OC(=O)C=C[C@@H]1C` [Leptomycin B (LMB), Leptomycin B] as the molecule, how does the “nuclear export of vRNP complexes” value [4] read?
**A.** The value was “efficiently blocked”.
